{
  "source": "patent US12031170B2",
  "about": "“System for improved production titers in fermentations” (DANMARKS TEKNISKE UNIVERSITET, priority 2015, dated 2024)",
  "assay_type_in_all_cases": "cell-based",
  "key": {"[1]": {"system": "E. coli XL-1 with pBAD-TA5", "test": "L-arabinose-addiction yefM-yoeB TA system, cell growth (OD600)", "method": "The yefM-yoeB TA pair was cloned into a plasmid (pBAD-TA5: araC, pBAD-yefM, pLac-yoeB, ampR) (Table 1) employing standard PCR cloning protocols (known in the art) and the plasmid was transformed into the host stain E. coli XL-1 with the genotype: recA1endA1 gyrA96 thi-1 hsdR17 supE44 relA1 lac[F′proAB lacIqZM15 Tn10 (TetR)]. Electroporation recovery of transformed cells was carried out in SOC medium (2% tryptone, 0.5% yeast extract, 10 mM NaCl, 2.5 mM KCl, 10 mM MgCl2, 10 mM MgSO4, and 20 mM glucose).\nTransformed E. coli cultures were grown in 2xYT medium (10 g/L yeast extract, 16 g/L tryptone, 5 g/L NaCl). Antibiotics were added to select for maintenance of plasmids in strains transformed with these, according to their respective antibiotic resistance gene. Antibiotic concentrations when added were as follows: ampicillin 100 μg/mL, chloramphenicol 30 μg/mL, spectinomycin 50 μg/mL, kanamycin 50 μg/mL.\nThe expression of the yoeB gene in the yefM-yoeB TA pair construct (FIG. 2) was placed under the control of the Lac promoter, which is inducible by isopropyl β-D-1-thiogalactopyranoside (IPTG). Exposure of the cells to increasing concentrations of IPTG induced sufficient expression of the YoeB toxin to prevent growth, when the cells were grown in the absence of any source of L-arabinose (FIG. 3A). […]"}, "[2]": {"system": "E. coli XL1 with folP/glmM driven by pBAD promoter", "test": "L-arabinose-addiction regulated essential gene operon folP/glmM, cell growth (OD600)", "conditions": "37° C."}, "[3]": {"system": "E. coli XL1 with pBAT-TA5", "test": "TPP-responsive riboswitch-regulated TA system, cell growth (OD600)", "conditions": "presence of inducer TPP (500 μM added to the growth medium)", "text": "A TPP-responsive riboswitch (ThiMN15 #19) was engineered into the previously constructed L-arabinose-responsive TA-based correction system (pBAD-TA5 to yield pBAT-TA5). This TPP riboswitch functions as an “ON-type” when in the presence of its ligand TPP, and it is functional at the level of translation. The riboswitch was inserted into the DNA region of the pBAD-TA5 gene construct that encodes the 5′ untranslated region (UTR) of the antitoxin mRNA sequence (FIG. 17). For optimal functionality of the riboswitch, a protein-encoding sequence tet was also added as N-terminal fusion to YefM as it originated from the screen where ThiMN15#19 had been identified. An alternative TPP-responsive riboswitch was constructed, where an “OFF-type” riboswitch was inserted into the DNA region of the pBAD-TA5 gene construct that encodes the 5′-UTR of the toxin-encoding sequence to yield the same ligand-responsive growth.\nAn alternative TPP responsive-riboswitch-regulated TA correction system was engineered with a constitutive promoter driving expression of the riboswitch-yefM mRNA. From a selection of constitutive promoters (SEQ ID Nos.: 47-65, 89) of different strengths, the pBAD promoter of pBAT-TA5 was replaced and the resulting plasmids transformed into E. coli XL1. […]"}, "E. coli strain e3.22#4": {"system": "E. coli strain e3.22#4", "test": "Benzoic acid-dependent growth of addicted strain", "conditions": "5 mM benzoic acid", "text": "(§1) The native single genomic copy of the essential gene operon folP-glmM in the E. coli XL1 host strain was modified to allow its transcriptional control by the benzoic acid-responsive promoter pSAL [SEQ ID No:118]. First, a gene encoding a benzoic acid biosensor (Pseudomonas putida nahR) (Table 12) was introduced into the XL1 host strain on the plasmid pBABspec. Then, replacement of the native folP-glmM promoter by the pSAL promoter was engineered by means of lambda red-mediated recombineering.\nRecombineering was performed as described in section 2.3 using well-described methods utilizing the pKD46 plasmid (Datsenko and Wanner, 2000)). Instead of gene disruption, a specific set of knock-out DNA fragments was used to only replace the native essential folP-glmM operon promoter and folP RBS. This set of knockout DNA fragments contained a kanamycin resistance cassette and the pSAL promoter, as illustrated in the cartoon in FIG. 8, as well as a redundant nucleotide (“N”, wherein “N” is any of A, T , G or C) in the RBS for folP-glmM to generate a four-membered library of folP translational strengths. […]\n(§2) A selected addicted strain (e3.22#4) and the non-addicted control E. coli strain (e3.18CON) were then tested for benzoic acid dependent growth by cultivation in a microtiter plate reader in liquid 2xYT medium supplemented with spectinomycin and kanamycin and w/wo salicylic acid (0 or 5 mM). […]"}, "[4]": {"system": "E. coli control strain e3.22CON", "test": "Toxicity of benzoic acid to non-addicted control strain, growth in microtiter plate", "conditions": "2xYT, 5 mM benzoic acid, 37 deg. C.", "method": "A non-addicted control E. coli strain (e3.22CON), also equipped with spectinomycin and kanamycin resistance genes, but wild-type control of folP-glmM expression (Table 13), was constructed in order to test the toxicity of benzoic acid.\nA selected addicted strain (e3.22#4) and the non-addicted control E. coli strain (e3.18CON) were then tested for benzoic acid dependent growth by cultivation in a microtiter plate reader in liquid 2xYT medium supplemented with spectinomycin and kanamycin and w/wo salicylic acid (0 or 5 mM). […] In contrast to the control strain, the growth rate and final biomass yield of the addicted strain e3.18#1 was enhanced by supplementation with benzoic acid with a growth rate higher than otherwise expected for non-addicted strains (FIG. 16)."}, "[5]": {"system": "E. coli with mevalonate biosensor TA plasmid (pBAM-TA5)", "conditions": "37 mM mevalonate added; no IPTG"}, "E. coli strain e3.18#1": {"system": "E. coli strain e3.18#1", "test": "Salicylic acid-dependent growth of addicted strain", "conditions": "5 mM salicylic acid", "text": "as §1, with “salicylic” for “benzoic”, “nahR_Asn169 (Cebolla et al., 1997))” for “nahR) (Table 12)”, “pBANspec (Table 10).” for “pBABspec.”\nRecombineering was performed as described in section 2.3 using well-described methods utilizing the pKD46 plasmid (Datsenko and Wanner, 2000). Instead of gene disruption, a specific set of knock-out DNA fragments was used to only replace the native essential folP-glmM operon promoter and folP RBS. […]\nas §2, with “(e3.18#1)” for “(e3.22#4)”, “salicylic” for “benzoic”, “presence/absence of” for “w/wo”"}, "[6]": {"system": "E. coli control strain e3.18CON", "test": "Toxicity of salicylic acid to non-addicted control strain, growth in microtiter plate", "conditions": "2xYT, 5 mM salicylic acid, 37 deg. C.", "method": "Recombineering was performed as described in section 2.3 using well-described methods utilizing the pKD46 plasmid (Datsenko and Wanner, 2000). Instead of gene disruption, a specific set of knock-out DNA fragments was used to only replace the native essential folP-glmM operon promoter and folP RBS. This set of knockout DNA fragments contained a kanamycin resistance cassette and the pSAL promoter, as illustrated in the cartoon in FIG. 8, as well as a redundant nucleotide (“N”, wherein “N” is any of A, T , G or C) in the RBS for folP-glmM to generate a four-membered library of folP translational strengths. This library allows selection of a translational strength for folP that suits the transcriptional regulation by the biosensor. Finally, candidate recombineered cells were selected for by plating on LB agar plates supplemented with 5 mM salicylic acid and spectinomycin for maintenance of pBANspec; and kanamycin for selection of inserted knockout fragment. […]\nas §2, with “(e3.18#1)” for “(e3.22#4)”, “salicylic” for “benzoic”, “presence/absence of” for “w/wo”"}, "[7]": {"system": "E. coli control strain e3.16CON", "test": "Toxicity of triacetic acid lactone to non-addicted control strain, growth in microtiter plate", "method": "A non-addicted control E. coli strain (e3.16CON), also equipped with spectinomycin and kanamycin resistance genes, but with wildtype control of folP-glmM expression (Table 9), was constructed in order to test the toxicity of triacetic acid lactone.\nThe non-addicted control E. coli strain (e3.16CON), and a selected addicted strain (e3.16#5) were then tested and compared for triacetic acid lactone-dependent growth by cultivation in a microtiter plate reader in liquid 2xYT medium supplemented with spectinomycin and kanamycin and a three-step gradient of triacetic acid lactone (0, 2 and 20 mM). […] The observed growth depression was greatest at a concentration of 20 mM triacetic acid lactone."}, "E. coli strain e3.16#5": {"system": "E. coli strain e3.16#5", "test": "Triacetic acid lactone-dependent growth of addicted strain", "text": "The native single genomic copy of the essential gene operon folP-glmM in the E. coli XL1 host strain was modified to allow its transcriptional control by the triacetic acid lactone-responsive promoter pBAD. First, a gene encoding a triacetic acid lactone biosensor (AraCtal (Tang et al., 2013)) was introduced into the XL1 host strain on the plasmid pBALspec (Table 8). Then, replacement of the native folP-glmM promoter in this host strain by the pBAD promoter was engineered by means of lambda red-mediated recombineering. Recombineering was performed using well-described methods utilizing the pKD46 plasmid (Datsenko and Wanner, 2000), but instead of gene disruption, a specific set of knock-out DNA fragments (produced by PCR) was used to only replace the native essential folP-glmM operon promoter and folP ribosomal binding site (RBS). This set of knockout DNA fragments each contained a kanamycin resistance cassette and the pBAD promoter, as illustrated in the cartoon in FIG. 8. The nucleotide sequence of the set of gene knockout DNA fragments differed only with respect to the redundant nucleotide (“N”, wherein “N” is any of A, T, G or C) in the RBS sequence (ACTTGC) for folP-glmM, which generated a four-membered library of folP translational strengths.\nFor recombineering, as performed in standard pKD46 protocols, the target strain was first transformed with pKD46, and a single colony of this strain was then cultured in a 25 mL 2xYT culture at 30 degrees C. and 250 rpm horizontal shaking. When the culture reached OD600=0.1, the lambda Red system of pKD46 was induced by addition of 0.2 vol % L-arabinose, and then further cultured to grow to OD600=0.4. […]\nThe non-addicted control E. coli strain (e3.16CON), and a selected addicted strain (e3.16#5) were then tested and compared for triacetic acid lactone-dependent growth by cultivation in a microtiter plate reader in liquid 2xYT medium supplemented with spectinomycin and kanamycin and a three-step gradient of triacetic acid lactone (0, 2 and 20 mM). […]"}},
  "data": [
    {"smiles": "CC(C)S[C@@H]1O[C@H](CO)[C@H](O)[C@H](O)[C@H]1O", "note": "[IPTG, isopropyl β-D-1-thiogalactopyranoside]", "values": [
      {"measurement": "IPTG (toxin inducer) concentration at which cell growth was strongly inhibited", "setting": "[1]; no L-arabinose, yoeB toxin under pLac", "value": "≥ 0.1", "unit": "mM"}
    ]},
    {"smiles": "O=C[C@H](O)[C@@H](O)[C@@H](O)CO", "note": "[L-arabinose]", "values": [
      {"measurement": "L-arabinose concentration sufficient to restore wild-type growth", "setting": "[1]; co-addition with IPTG at concentrations up to 0.5 mM", "value": 0.1, "unit": "%"},
      {"measurement": "cell growth", "setting": "[2]; 2xYT supplemented with 0.0025% L-arabinose, 12-hour time course", "value": "completely failed to grow"},
      {"measurement": "cell growth", "setting": "[2]; 2xYT supplemented with 0.25% L-arabinose", "value": "exponential"}
    ]},
    {"smiles": "Cc1ncc(C[n+]2csc(CCO[P@](=O)(O)OP(=O)(O)O)c2C)c(N)n1", "note": "[TPP, thiamine pyrophosphate]", "values": [
      {"measurement": "effect on growth", "setting": "[3]", "value": "enhanced growth"}
    ]},
    {"smiles": "O=C(O)c1ccccc1", "note": "[benzoic acid]", "values": [
      {"measurement": "growth rate and final biomass yield of addicted strain", "setting": "E. coli strain e3.22#4", "value": "enhanced"},
      {"measurement": "effect on growth of control strain", "setting": "[4]", "value": "relative reduction in growth rate and final biomass yield"}
    ]},
    {"smiles": "CC(O)(CCO)CC(=O)O", "note": "(stereo not drawn) [mevalonate]", "values": [
      {"measurement": "effect on cell growth compared to cultures devoid of mevalonate", "setting": "[5]", "value": "increase in cell growth"}
    ]},
    {"smiles": "O=C(O)c1ccccc1O", "note": "[salicylic acid]", "values": [
      {"measurement": "growth rate of addicted strain", "setting": "E. coli strain e3.18#1", "value": "not reduced"},
      {"measurement": "effect on growth of control strain", "setting": "[6]", "value": "relative reduction in growth rate and final biomass yield"}
    ]},
    {"smiles": "Cc1cc(O)cc(=O)o1", "note": "[triacetic acid lactone]", "values": [
      {"measurement": "effect on growth of control strain", "setting": "[7]; 2xYT, 0, 2 and 20 mM triacetic acid lactone, 37 deg. C.", "value": "relative reduction in growth rate"},
      {"measurement": "concentration at which observed growth depression was greatest", "setting": "[7]; gradient 0, 2 and 20 mM", "value": 20000, "unit": "µM"},
      {"measurement": "final cell yield of addicted strain", "setting": "E. coli strain e3.16#5; 2 mM triacetic acid lactone", "value": "increased"},
      {"measurement": "growth rate of addicted strain", "setting": "E. coli strain e3.16#5; 2 mM triacetic acid lactone", "value": "enhanced"},
      {"measurement": "final cell yield of addicted strain", "setting": "E. coli strain e3.16#5; 20 mM triacetic acid lactone", "value": "increased"}
    ]}
  ]
}
